# In ChEMBL document CHEMBL3608248, “Dimeric Macrocyclic Antagonists of Inhibitor of Apoptosis Proteins for the Treatment of Cancer” (ACS Med Chem Lett, 2015):
# Calls of active or inactive are those of the source. The calls are words filed in the database; no cut-off is given here.
# How the values were obtained:
# physchem = settings: buffer, pH 7.4
# cells = settings: Homo sapiens, A875, 72 h
# in vitro [1] = settings: mouse, plasma
# in vivo [2] = settings: rat, iv, 1 mg/kg
# in vitro [3] = settings: human, liver microsomes
# in vivo [4] = settings: rat, iv, 1 mg/kg; remark: listed apart in the source
# in vitro [5] = settings: dog, plasma
# animal or person [6] = settings: Homo sapiens, A875, ip, 72 h, read-out: TGI
# hERG = hERG (Homo sapiens, UniProt Q12809); assay: in vitro
# in vivo [7] = settings: dog, iv, 0.3 mg/kg
# in vivo [8] = settings: rat, iv, 1 mg/kg; remark: listed apart in the source
# animal or person [9] = settings: Homo sapiens, A875, ip, 72 h, read-out: TGI; remark: listed apart in the source
# in vivo [10] = settings: dog, iv, 0.3 mg/kg; remark: listed apart in the source
# in vivo [11] = settings: Balb/C, mouse, iv, 1 mg/kg
# A875 = settings: Homo sapiens, 50 mg/kg
# in vivo [12] = settings: dog, iv, 0.3 mg/kg; remark: listed apart in the source
# in vivo [13] = settings: Balb/C, mouse, iv, 1 mg/kg; remark: listed apart in the source
# in vitro [14] = settings: dog, liver microsomes
# animal or person [15] = settings: Homo sapiens, A875, ip, read-out: TGI
# in vitro [16] = settings: mouse, liver microsomes
# in vivo [17] = settings: Balb/C, mouse, iv, 1 mg/kg; remark: listed apart in the source
# HCT-116 = assay: cells; settings: Homo sapiens
# in vitro [18] = settings: human, plasma
# HCT-116/VM46 = assay: cells; settings: Homo sapiens
# in vitro [19] = settings: rat, liver microsomes
# in vitro [20] = settings: rat, plasma
# in vivo [21] = settings: Balb/C, mouse, iv, 1 mg/kg; remark: listed apart in the source
# Mus musculus = organism: Mus musculus; settings: in vivo, iv, 1 mg/kg, 7 h
# hERG, sequence (Q12809 whole entry): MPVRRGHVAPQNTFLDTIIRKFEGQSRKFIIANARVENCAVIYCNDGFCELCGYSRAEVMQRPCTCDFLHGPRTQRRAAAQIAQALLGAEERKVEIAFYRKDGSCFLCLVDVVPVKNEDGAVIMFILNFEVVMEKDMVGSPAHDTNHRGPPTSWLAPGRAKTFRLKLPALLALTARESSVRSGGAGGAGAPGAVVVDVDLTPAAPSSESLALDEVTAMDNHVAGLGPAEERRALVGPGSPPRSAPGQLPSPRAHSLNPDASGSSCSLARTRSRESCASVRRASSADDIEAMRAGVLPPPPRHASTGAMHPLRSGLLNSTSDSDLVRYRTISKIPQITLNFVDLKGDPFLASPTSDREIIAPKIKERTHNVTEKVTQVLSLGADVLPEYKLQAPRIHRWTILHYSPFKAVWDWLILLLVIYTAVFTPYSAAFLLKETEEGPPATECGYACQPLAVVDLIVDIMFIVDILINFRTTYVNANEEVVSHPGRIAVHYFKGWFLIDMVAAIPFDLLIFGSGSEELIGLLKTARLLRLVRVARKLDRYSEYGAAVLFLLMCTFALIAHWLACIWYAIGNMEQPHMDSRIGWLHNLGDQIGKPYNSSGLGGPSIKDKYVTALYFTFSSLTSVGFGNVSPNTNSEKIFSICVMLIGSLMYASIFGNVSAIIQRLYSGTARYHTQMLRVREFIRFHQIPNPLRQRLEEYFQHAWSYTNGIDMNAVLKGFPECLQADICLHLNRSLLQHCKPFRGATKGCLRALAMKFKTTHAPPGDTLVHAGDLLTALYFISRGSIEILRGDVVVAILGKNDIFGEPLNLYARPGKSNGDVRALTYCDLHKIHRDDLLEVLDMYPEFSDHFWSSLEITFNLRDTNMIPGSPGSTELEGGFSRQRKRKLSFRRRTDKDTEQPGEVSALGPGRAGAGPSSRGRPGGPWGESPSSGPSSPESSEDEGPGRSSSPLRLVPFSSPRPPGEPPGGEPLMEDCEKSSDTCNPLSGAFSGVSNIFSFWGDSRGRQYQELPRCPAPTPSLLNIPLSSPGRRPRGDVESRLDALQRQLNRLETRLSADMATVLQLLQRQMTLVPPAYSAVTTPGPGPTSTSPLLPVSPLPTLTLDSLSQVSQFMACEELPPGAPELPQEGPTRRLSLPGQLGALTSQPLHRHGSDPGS
smiles,measurement,setting,value
CN[C@@H](C)C(=O)N[C@H](C(=O)N1C[C@H]2CCCCOc3ccc(cc3)C[C@@H](C(=O)NS(=O)(=O)C3CC3)NC(=O)[C@H](Cc3ccc4ccccc4c3)NC(=O)[C@@H]3C[C@H](CCCCOc4ccc(cc4)C[C@@H](C(=O)O)NC(=O)[C@H](Cc4ccc5ccccc5c4)NC(=O)[C@@H]1C2)CN3C(=O)[C@@H](NC(=O)[C@H](C)NC)C(C)(C)C)C(C)(C)C,solubility,physchem,< 0.01 mg/mL
same,IC50,cells,0.015 µM
CN[C@@H](C)C(=O)N[C@H](C(=O)N1C[C@@H]2C[C@H]1C(=O)N[C@@H](Cc1ccc3ccccc3c1)C(=O)N[C@H](C(=O)OC)Cc1ccc(cc1)OCc1cn(nn1)[C@H]1C[C@@H](C(=O)N[C@@H](Cc3ccc4ccccc4c3)C(=O)N[C@H](C(=O)OC)Cc3ccc(cc3)OCc3cn2nn3)N(C(=O)[C@@H](NC(=O)[C@H](C)NC)C(C)(C)C)C1)C(C)(C)C,IC50,cells,0.69 µM
CN[C@@H](C)C(=O)N[C@H](C(=O)N1C[C@@H]2C[C@H]1C(=O)N[C@@H](Cc1ccc3ccccc3c1)C(=O)N[C@H](C(=O)O)Cc1ccc(cc1)OCc1cn(nn1)[C@H]1C[C@@H](C(=O)N[C@@H](Cc3ccc4ccccc4c3)C(=O)N[C@H](c3nnn[nH]3)Cc3ccc(cc3)OCc3cn2nn3)N(C(=O)[C@@H](NC(=O)[C@H](C)NC)C(C)(C)C)C1)C(C)(C)C,IC50,cells,0.083 µM
CN[C@@H](C)C(=O)N[C@H](C(=O)N1C[C@H]2C/C=C/COc3ccc(cc3)C[C@@H](C(=O)NS(=O)(=O)C3CC3)NC(=O)[C@H](Cc3ccc4ccccc4c3)NC(=O)[C@@H]3C[C@H](C/C=C/COc4ccc(cc4)C[C@@H](C(=O)O)NC(=O)[C@H](Cc4ccc5ccccc5c4)NC(=O)[C@@H]1C2)CN3C(=O)[C@@H](NC(=O)[C@H](C)NC)C(C)(C)C)C(C)(C)C,IC50,cells,0.023 µM
CN[C@@H](C)C(=O)N[C@H](C(=O)N1C[C@@H]2C[C@H]1C(=O)N[C@@H](Cc1ccc3ccccc3c1)C(=O)N[C@H](C(=O)O)Cc1ccc(cc1)OCc1cn(nn1)[C@H]1C[C@@H](C(=O)N[C@@H](Cc3ccc4ccccc4c3)C(=O)N[C@H](C(=O)OC)Cc3ccc(cc3)OCc3cn2nn3)N(C(=O)[C@@H](NC(=O)[C@H](C)NC)C(C)(C)C)C1)C(C)(C)C,IC50,cells,0.31 µM
CN[C@@H](C)C(=O)N[C@H](C(=O)N1C[C@H]2CCCCOc3ccc(cc3)C[C@@H](C(=O)O)NC(=O)[C@H](Cc3ccc4ccccc4c3)NC(=O)[C@@H]3C[C@@H](CN3C(=O)[C@@H](NC(=O)[C@H](C)NC)C(C)(C)C)n3cc(nn3)COc3ccc(cc3)C[C@@H](NS(=O)(=O)C3CC3)NC(=O)[C@H](Cc3ccc4ccccc4c3)NC(=O)[C@@H]1C2)C(C)(C)C,fraction unbound,in vitro [1],0.058
same,AUC(0-t) at 7 h,in vivo [2],1.71 µM·h
same,half-life,in vitro [3],> 2 h
same,half-life,in vivo [4],1 h
same,fraction unbound,in vitro [5],0.024
same,inhibition in vivo at 2 mg/kg,animal or person [6],67%
same,inhibition at 30 um,hERG,9%
same,half-life,in vivo [7],4.7 h
same,clearance,in vivo [8],0.372 L/h/kg
same,inhibition in vivo at 5 mg/kg,animal or person [9],> 100%
same,clearance,in vivo [10],0.024 L/h/kg
same,clearance,in vivo [11],0.126 L/h/kg
same,TGI,A875,Active
same,solubility,physchem,0.05 mg/mL
same,AUC(0-t) at 7 h,in vivo [12],8.43 µM·h
same,AUC(0-t) at 7 h,in vivo [13],4.49 µM·h
same,half-life,in vitro [14],> 2 h
same,IC50,cells,0.019 µM
same,inhibition in vivo at 5 mg/kg,animal or person [15],80%
same,half-life,in vitro [16],> 2 h
same,half-life,in vivo [17],1.7 h
same,IC50,HCT-116,0.092 µM
same,fraction unbound,in vitro [18],0.075
same,IC50,HCT-116/VM46,0.011 µM
same,half-life,in vitro [19],1.4 h
same,fraction unbound,in vitro [20],0.019
CN[C@@H](C)C(=O)N[C@H](C(=O)N1C[C@@H]2C[C@H]1C(=O)N[C@@H](Cc1ccc3ccccc3c1)C(=O)N[C@H](NS(=O)(=O)C1CC1)Cc1ccc(cc1)OCc1cn(nn1)[C@H]1C[C@@H](C(=O)N[C@@H](Cc3ccc4ccccc4c3)C(=O)N[C@H](NS(=O)(=O)C3CC3)Cc3ccc(cc3)OCc3cn2nn3)N(C(=O)[C@@H](NC(=O)[C@H](C)NC)C(C)(C)C)C1)C(C)(C)C,Vd,in vivo [21],0.3 L/kg
same,clearance,in vivo [11],0.216 L/h/kg
same,AUC(0-t) at 7 h,in vivo [13],2.35 µM·h
same,IC50,cells,0.079 µM
same,half-life,in vivo [17],0.9 h
CN[C@@H](C)C(=O)N[C@H](C(=O)N1C[C@H]2C/C=C/COc3ccc(cc3)C[C@@H](C(=O)O)NC(=O)[C@H](Cc3ccc4ccccc4c3)NC(=O)[C@@H]3C[C@@H](CN3C(=O)[C@@H](NC(=O)[C@H](C)NC)C(C)(C)C)n3cc(nn3)COc3ccc(cc3)C[C@@H](NS(=O)(=O)C3CC3)NC(=O)[C@H](Cc3ccc4ccccc4c3)NC(=O)[C@@H]1C2)C(C)(C)C,IC50,cells,0.051 µM
C=CCOc1ccc(C[C@H](NC(=O)[C@H](Cc2ccc3ccccc3c2)NC(=O)[C@@H]2C[C@H](n3cc(COc4ccc(C[C@H](NC(=O)[C@H](Cc5ccc6ccccc6c5)NC(=O)[C@@H]5C[C@H](CC=C)CN5C(=O)[C@@H](NC(=O)[C@H](C)NC)C(C)(C)C)NS(=O)(=O)C5CC5)cc4)nn3)CN2C(=O)[C@@H](NC(=O)[C@H](C)NC)C(C)(C)C)C(=O)O)cc1,IC50,cells,> 1 µM
CN[C@@H](C)C(=O)N[C@H](C(=O)N1C[C@@H]2C[C@H]1C(=O)N[C@@H](Cc1ccc3ccccc3c1)C(=O)N[C@H](NS(=O)(=O)C1CC1)Cc1ccc(cc1)OCc1cn(nn1)[C@H]1C[C@@H](C(=O)N[C@@H](Cc3ccc4ccccc4c3)C(=O)N[C@H](C(=O)O)Cc3ccc(cc3)OCc3cn2nn3)N(C(=O)[C@@H](NC(=O)[C@H](C)NC)C(C)(C)C)C1)C(C)(C)C,Vd,in vivo [21],0.1 L/kg
same,clearance,in vivo [11],0.09 L/h/kg
same,AUC(0-t) at 7 h,in vivo [13],5.85 µM·h
same,IC50,cells,0.039 µM
same,half-life,in vivo [17],1 h
CN[C@@H](C)C(=O)N[C@H](C(=O)N1C[C@@H]2C[C@H]1C(=O)N[C@@H](Cc1ccc3ccccc3c1)C(=O)N[C@H](C(=O)O)Cc1ccc(cc1)OCc1cn(nn1)[C@H]1C[C@@H](C(=O)N[C@@H](Cc3ccc4ccccc4c3)C(=O)N[C@H](C(=O)O)Cc3ccc(cc3)OCc3cn2nn3)N(C(=O)[C@@H](NC(=O)[C@H](C)NC)C(C)(C)C)C1)C(C)(C)C,AUC,Mus musculus,1.55 µM·h
same,Vd,in vivo [21],0.3 L/kg
same,solubility,physchem,0.13 mg/mL
same,IC50,cells,0.073 µM
